In experiment [1] the test system is Plasmodium falciparum. The experiment is described as follows: Antimalarial activity against chloroquine-sensitive Plasmodium falciparum CDC/I/HB-3. It counts as functional, organism-based.
Experiment [2] deals with Plasmodium falciparum. The experiment can be described thus: Antimalarial activity against chloroquine-resistant Plasmodium falciparum FCB/NC1. It counts as functional, organism-based.
Experiment [3] can be described thus: Compound was tested for the inhibition of LDH from a chloroquine-resistant strain (FCB/NC-1) of Plasmodium falciparum.

SMILES strings stand for the structures.

This note sets out measurements from ChEMBL document CHEMBL1123447, “Biologically active derivatives of gossypol: synthesis and antimalarial activities of peri-acylated gossylic nitriles” (J Med Chem, 1986).

A word on the IC50: it is the concentration at which inhibition is half-maximal. The low end stands for greater potency in that assay, the high end for weaker potency in that assay. Broadly, the Ki is the dissociation constant of the complex between target and ligand, obtained from inhibition or displacement.

`CCCC(=O)Oc1c(-c2c(C)cc3c(C(C)C)c(O)c(O)c(C#N)c3c2OC(=O)CCC)c(C)cc2c(C(C)C)c(O)c(O)c(C#N)c12`: the IC50 was 21 µM in experiment [1] and 26 µM in experiment [2]. The compound further gave a Ki in experiment [3] of 0.62 µM.
Take `CCCCC(=O)Oc1c(-c2c(C)cc3c(C(C)C)c(O)c(O)c(C#N)c3c2OC(=O)CCCC)c(C)cc2c(C(C)C)c(O)c(O)c(C#N)c12`: the results for the IC50 in experiment [1] and in experiment [2] were 12 µM and 16 µM, respectively. In addition, the inhibition constant (Ki) in experiment [3] came out at 0.33 µM.
On the same counts, the results for `CC(=O)Oc1c(-c2c(C)cc3c(C(C)C)c(O)c(O)c(C#N)c3c2OC(C)=O)c(C)cc2c(C(C)C)c(O)c(O)c(C#N)c12` are 36 µM, 76 µM and 0.83 µM.
In the case of `Cc1cc2c(C(C)C)c(O)c(O)c(C=O)c2c(O)c1-c1c(C)cc2c(C(C)C)c(O)c(O)c(C=O)c2c1O` [GOSSYPOL], the IC50 in experiment [1] was found to be 7 µM; in experiment [2], 13 µM.
For the compound `CCC(=O)Oc1c(-c2c(C)cc3c(C(C)C)c(O)c(O)c(C#N)c3c2OC(=O)CC)c(C)cc2c(C(C)C)c(O)c(O)c(C#N)c12`, the IC50 was 46 µM in experiment [1] and 69 µM in experiment [2]. The Ki in experiment [3] came out at 1.1 µM.
